Source: patent US8802597B2, “Herbicidal pyrimidines” (E I du Pont de Nemours and Company, priority 2003, dated 2014)

SMILES	melting point [°C]
CCOC(=O)c1nc(-c2ccccc2)nc(N)c1Br [Compound 18]	110 to 111
Nc1nc(C2CC2)nc(C(=O)[O-])c1Br.[Na+] [Compound 113, 6-amino-5-bromo-2-cyclopropyl-4-pyrimidinecarboxylic acid monosodium salt]	> 300
COC(=O)c1nc(C2CC2)nc(N)c1I [Compound 7]	145 to 146
Nc1nc(C2CC2)nc(C(=O)OCc2ccccc2)c1Br [Compound 22, phenylmethyl 6-amino-5-bromo-2-cyclopropyl-4-pyrimidinecarboxylate]	129 to 131
Nc1nc(C2CC2)nc(C(=O)O)c1Br [Compound 8]	160 to 162
